Laboratory results: patent publication US8952024B2, “Herbicidal pyrimidone derivatives” (E I du Pont de Nemours and Company, priority 2009, dated 2015)

What was measured:
Type in all cases: in vivo
[1] = test system: barnyardgrass (Echinochloa crus-galli); assay: Test A pre-/postemergence plant response; conditions: for Barnyardgrass plant response rating: visual injury, 0 to 100 scale (0 no effect, 100 complete control), approx. ten days
Outline: (§1)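 Injury scores (0, no effect; 100, complete control) come from visual comparison with untreated controls roughly ten days post-treatment. Test chemicals in a surfactant-containing non-phytotoxic solvent were applied as a directed soil spray preemergence and to one- to two-leaf seedlings postemergence.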

corn (Zea mays) = assay: Test A pre-/postemergence plant response; conditions: for Corn plant response rating: visual injury, 0 to 100 scale (0 no effect, 100 complete control), approx. ten days
Outline: as §1

[2] = test system: giant foxtail (Setaria faberii); assay: Test A pre-/postemergence plant response; conditions: for Foxtail, Giant plant response rating: visual injury, 0 to 100 scale (0 no effect, 100 complete control), approx. ten days
Outline: as §1

[3] = test system: large crabgrass (Digitaria sanguinalis); assay: Test A pre-/postemergence plant response; conditions: for Crabgrass, Large plant response rating: visual injury, 0 to 100 scale (0 no effect, 100 complete control), approx. ten days
Outline: as §1

[4] = test system: morningglory (Ipomoea spp.); assay: Test A pre-/postemergence plant response; conditions: for Morningglory plant response rating: visual injury, 0 to 100 scale (0 no effect, 100 complete control), approx. ten days
Outline: as §1

[5] = test system: pigweed (Amaranthus retroflexus); assay: Test A pre-/postemergence plant response; conditions: for Pigweed plant response rating: visual injury, 0 to 100 scale (0 no effect, 100 complete control), approx. ten days
Outline: as §1

[6] = test system: velvetleaf (Abutilon theophrasti); assay: Test A pre-/postemergence plant response; conditions: for Velvetleaf plant response rating: visual injury, 0 to 100 scale (0 no effect, 100 complete control), approx. ten days
Outline: as §1

[7] = test system: wheat (Triticum aestivum); assay: Test A pre-/postemergence plant response; conditions: for Wheat plant response rating: visual injury, 0 to 100 scale (0 no effect, 100 complete control), approx. ten days
Outline: as §1

[8] = test system: barnyardgrass (Echinochloa crus-galli); assay: Test B flooded paddy test; conditions: for Plant response rating, Flood, Barnyardgrass: 250 g ai/ha, flooded paddy test, visual rating on 0 to 100 scale (0 no effect, 100 complete control) after 13 to 15 days; for Plant response rating, Barnyardgrass: Flood (flooded paddy test), 13 to 15 days; for Barnyardgrass plant response rating: Flood, 31 g ai/ha, scale 0 to 100 (0 no effect, 100 complete control)
Outline: (§2)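 Each compound is added to standing floodwater (3 cm above soil, maintained) in pots of 2-leaf-stage plants; greenhouse exposure lasts 13–15 d before visual comparison with controls on a 0–100 control scale.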

[9] = test system: ducksalad (Heteranthera limosa); assay: Test B flooded paddy test; conditions: for Plant response rating, Flood, Ducksalad: 250 g ai/ha, flooded paddy test, visual rating on 0 to 100 scale (0 no effect, 100 complete control) after 13 to 15 days; for Plant response rating, Ducksalad: Flood (flooded paddy test), 13 to 15 days; for Ducksalad plant response rating: Flood, 31 g ai/ha, scale 0 to 100 (0 no effect, 100 complete control)
Outline: as §2

rice (Oryza sativa) = assay: Test B flooded paddy test; conditions: for Plant response rating, Flood, Rice: 250 g ai/ha, flooded paddy test, visual rating on 0 to 100 scale (0 no effect, 100 complete control) after 13 to 15 days; for Plant response rating, Rice: Flood (flooded paddy test), 13 to 15 days; for Rice plant response rating: Flood, 31 g ai/ha, scale 0 to 100 (0 no effect, 100 complete control)
Outline: as §2

[10] = test system: umbrella sedge (Cyperus difformis); assay: Test B flooded paddy test; conditions: for Plant response rating, Flood, Sedge, Umbrella: 250 g ai/ha, flooded paddy test, visual rating on 0 to 100 scale (0 no effect, 100 complete control) after 13 to 15 days; for Plant response rating, Sedge, Umbrella: Flood (flooded paddy test), 13 to 15 days; for Sedge, Umbrella plant response rating: Flood, 31 g ai/ha, scale 0 to 100 (0 no effect, 100 complete control)
Outline: as §2

[11] = Postemergence, 125 g ai/ha, 0 to 100 scale where 0 is no effect and 100 is complete control
[12] = Preemergence, 125 g ai/ha, 0 to 100 scale, 0 = no effect, 100 = complete control
[13] = Preemergence, 500 g ai/ha, 0 to 100 scale, 0 = no effect, 100 = complete control
[14] = 62 g ai/ha, scale of 0 to 100 where 0 is no effect and 100 is complete control
[15] = 125 g ai/ha, scale 0 to 100, 0 is no effect, 100 is complete control

Cc1ccc(Cl)cc1-n1c(-c2cc(F)cc(F)c2)ncc(C(=O)C2=C(O)CCCC2=O)c1=O [Compound 179]
30: Plant response rating, Flood, Barnyardgrass [8]
60: Plant response rating, Barnyardgrass [1, 11] | Plant response rating, Crabgrass, Large [3, 11] | Plant response rating, Morningglory [4, 11] | Plant response rating, Wheat [7, 13]
80: Corn plant response rating (corn (Zea mays); Postemergence, 500 g ai/ha) | Wheat plant response rating ([7]; Postemergence, 500 g ai/ha) | Plant response rating, Sedge, Umbrella [10, 14]
20: Plant response rating, Crabgrass, Large [3, 12] | Plant response rating, Barnyardgrass [8, 15]
100: Crabgrass, Large plant response rating ([3]; Postemergence, 500 g ai/ha) | Plant response rating, Crabgrass, Large [3, 13] | Morningglory plant response rating ([4]; Postemergence, 500 g ai/ha) | Pigweed plant response rating ([5]; Postemergence, 500 g ai/ha) | Plant response rating, Velvetleaf [6, 11] | Velvetleaf plant response rating ([6]; Postemergence, 500 g ai/ha) | Plant response rating, Velvetleaf [6, 13] | Plant response rating, Flood, Ducksalad [9]
90: Barnyardgrass plant response rating ([1]; Postemergence, 500 g ai/ha) | Foxtail, Giant plant response rating ([2]; Postemergence, 500 g ai/ha) | Plant response rating, Foxtail, Giant [2, 13] | Plant response rating, Pigweed [5, 11] | Plant response rating, Pigweed [5, 13] | Plant response rating, Ducksalad [9, 14] | Ducksalad plant response rating [9]
25: Plant response rating, Rice (rice (Oryza sativa); [15])
10: Plant response rating, Corn (corn (Zea mays); [11]) | Plant response rating, Foxtail, Giant [2, 12] | Plant response rating, Barnyardgrass [8, 14]
50: Plant response rating, Pigweed [5, 12] | Plant response rating, Velvetleaf [6, 12]
85: Plant response rating, Sedge, Umbrella [10, 15]
70: Plant response rating, Barnyardgrass [1, 13]
65: Plant response rating, Flood, Rice (rice (Oryza sativa))
95: Plant response rating, Ducksalad [9, 15] | Plant response rating, Flood, Sedge, Umbrella [10]
40: Plant response rating, Foxtail, Giant [2, 11] | Plant response rating, Morningglory [4, 13] | Plant response rating, Wheat [7, 11] | Sedge, Umbrella plant response rating [10]
0: Plant response rating, Barnyardgrass [1, 12] | Plant response rating, Corn (corn (Zea mays); [12]) | Plant response rating, Corn (corn (Zea mays); [13]) | Plant response rating, Morningglory [4, 12] | Plant response rating, Wheat [7, 12] | Barnyardgrass plant response rating [8] | Plant response rating, Rice (rice (Oryza sativa); [14]) | Rice plant response rating (rice (Oryza sativa))

Cc1cccc(-c2ncc(C(=O)C3=C(O)CCCC3=O)c(=O)n2C2CCCCC2)c1 [Compound 185]
100: Plant response rating, Morningglory [4, 11] | Morningglory plant response rating ([4]; Postemergence, 500 g ai/ha) | Pigweed plant response rating ([5]; Postemergence, 500 g ai/ha) | Velvetleaf plant response rating ([6]; Postemergence, 500 g ai/ha)
90: Barnyardgrass plant response rating ([1]; Postemergence, 500 g ai/ha) | Plant response rating, Pigweed [5, 11] | Plant response rating, Velvetleaf [6, 11]
0: Plant response rating, Barnyardgrass [1, 12] | Plant response rating, Corn (corn (Zea mays); [11]) | Plant response rating, Corn (corn (Zea mays); [12]) | Plant response rating, Corn (corn (Zea mays); [13]) | Plant response rating, Foxtail, Giant [2, 12] | Plant response rating, Crabgrass, Large [3, 12] | Plant response rating, Pigweed [5, 12] | Plant response rating, Velvetleaf [6, 12] | Plant response rating, Wheat [7, 11] | Wheat plant response rating ([7]; Postemergence, 500 g ai/ha) | Plant response rating, Wheat [7, 12] | Plant response rating, Wheat [7, 13] | Plant response rating, Flood, Barnyardgrass [8] | Plant response rating, Barnyardgrass [8, 14] | Plant response rating, Barnyardgrass [8, 15] | Barnyardgrass plant response rating [8] | Plant response rating, Flood, Rice (rice (Oryza sativa)) | Plant response rating, Rice (rice (Oryza sativa); [14]) | Plant response rating, Rice (rice (Oryza sativa); [15]) | Rice plant response rating (rice (Oryza sativa))
60: Plant response rating, Flood, Sedge, Umbrella [10]
80: Foxtail, Giant plant response rating ([2]; Postemergence, 500 g ai/ha)
65: Plant response rating, Sedge, Umbrella [10, 15] | Sedge, Umbrella plant response rating [10]
75: Plant response rating, Flood, Ducksalad [9] | Plant response rating, Ducksalad [9, 15] | Ducksalad plant response rating [9] | Plant response rating, Sedge, Umbrella [10, 14]
30: Plant response rating, Crabgrass, Large [3, 13] | Plant response rating, Morningglory [4, 13]
70: Plant response rating, Barnyardgrass [1, 11] | Crabgrass, Large plant response rating ([3]; Postemergence, 500 g ai/ha) | Plant response rating, Pigweed [5, 13] | Plant response rating, Ducksalad [9, 14]
50: Plant response rating, Barnyardgrass [1, 13] | Corn plant response rating (corn (Zea mays); Postemergence, 500 g ai/ha) | Plant response rating, Foxtail, Giant [2, 11] | Plant response rating, Foxtail, Giant [2, 13] | Plant response rating, Crabgrass, Large [3, 11] | Plant response rating, Velvetleaf [6, 13]
